Legend:
[1] = tested on: p70 ribosomal protein S6 kinase (P70s6K1); test: Panel of protein kinases: P70s6K1; type: biochemical; conditions: method of Davies et al.
Protocol: (§1) The compounds of the present invention were screened against a large panel of protein kinase to determine inhibition activity for CDK as against a variety of protein kinases. The assay was conducted using methods and materials described by Davies, S et al. Specificity and Mechanism of Action of Some Commonly Used Protein Kinase Inhibitors, Biochem J. 351, 95–105 (2000), the contents of which are herein incorporated by reference. The compounds were screened against a panel of protein kinases which include AMP-activiated protein kinase (AMPK), checkpoint kinase (CHK1), casein kinases 1 and 2 (CK1 and CK2), cytoplasmic tyrosine kinase (CSK), dual serine/threonine/tyrosine kinase (DYRK1A), glycogen synthase kinase 3 (GSK3B), c-Jun N-terminal kinase (JNK), lymphocyte kinase (LCK), mitogen-activated protein kinases 2, K-1a, K2 (MAPK2, MAPKAP-K1a, and MAPKAP-K2), MAPK kinase (MKK1, also called MEK), mitogen and stress-activated protein kinase 1 (MSK1), never-in-mitosis kinase 6 (NEK6), p70 ribosomal protein S6 kinase (P70s6K1), 3-phosphoinositide-dependent protein kinase 1 (PDK1), phosphorylase kinase (PHK), protein kinase A (PKA), protein kinase B (PKB, also called Akt), protein kinase C (PKCa), p38-regulated/activated kinase (PRAK), Rho-dependent protein kinase (ROCK-II), stress-activated protein kinase 2a, 2b, 3 and 4 (SAPK-2A or p38, SAPK-2b or p38β2, SAPK3 or p38γ, SAPK4 or p38δ, respectively), and serum- and glucocorticoid-induced kinase (SGK). Compound activity was grouped into categories of weak (<50%), moderate (50–75%) and strong inhibition (>75%).

[2] = tested on: Rho-dependent protein kinase (ROCK-II); test: Panel of protein kinases: ROCK-II; type: biochemical; conditions: method of Davies et al.
Protocol: as §1

| SMILES | Kinase P70s6K1 inhibition [1] | Kinase ROCK-II inhibition [2] |
| --- | --- | --- |
| CCNCc1cncc(-c2ccc3[nH]nc(-c4nc5c(SC)cccc5[nH]4)c3c2)c1C [C] | − (Weak inhibition <50%) | + (Moderate inhibition 50–75%) |
| CCNCc1cncc(-c2ccc3[nH]nc(-c4nc5ccccc5[nH]4)c3c2)c1C [A] | + (Moderate inhibition 50–75%) | ++ (Strong inhibition >75%) |
| CCNCc1cncc(-c2ccc3[nH]nc(-c4nc5c(C(=O)NC)cccc5[nH]4)c3c2)c1C [B] | + (Moderate inhibition 50–75%) | + (Moderate inhibition 50–75%) |
| CCNCc1cncc(-c2ccc3[nH]nc(-c4nc5c(NC(C)=O)cccc5[nH]4)c3c2)c1C [D] | − (Weak inhibition <50%) | − (Weak inhibition <50%) |
| CCNCc1cncc(-c2ccc3[nH]nc(-c4nc5c(F)cc(F)cc5[nH]4)c3c2)c1C [Example 1, {5-[3-(4,6-Difluoro-1H-benzoimidazol-2-yl)-1H-indazol-5-yl]-4-methyl-pyridin-3-ylmethyl}-ethyl-amine] | − (Weak inhibition <50%) | − (Weak inhibition <50%) |
